This note sets out measurements from patent US7311901B2, “Amphiphilic block copolymer and polymeric composition comprising the same for drug delivery” (Samyang Corporation, priority 2003, dated 2007).

The test system of this assay is Taxol®-pretreated cancer cells. Description: IC50 of paclitaxel for Taxol®-pretreated cancer cells. The format is cell-based, human. The note with it: Taxol®-pretreated vs native cancer cells; data not shown.

With `CC(=O)O[C@H]1C(=O)[C@@]2(C)[C@H]([C@H](OC(=O)c3ccccc3)[C@]3(O)C[C@H](OC(=O)[C@H](O)[C@@H](NC(=O)c4ccccc4)c4ccccc4)C(C)=C1C3(C)C)[C@]1(OC(C)=O)CO[C@@H]1C[C@@H]2O` [paclitaxel], the IC50 of paclitaxel entry was “increased significantly”.
